Experimental data: ChEMBL document CHEMBL3045355, “Synthesis of a New Series of 4-Aryl-1,4-Dihydropyridines with Calcium Channel Blocking and Vasodilatory Activity” (Med Chem Res, 2012)

Assays:
[1] = molecular target: T1, Voltage-gated L-type calcium channel (Rattus norvegicus, UniProt P22002+Q02485+P27732); experiment: Inhibition of L-type calcium channel in Rattus norvegicus Wistar (rat) thoracic aorta assessed as relaxation of KCl-induced vasoconstriction after 30 min relative to control; format: tissue-based
[2] = molecular target: T1, Voltage-gated L-type calcium channel; experiment: Inhibition of L-type calcium channel in Rattus norvegicus Wistar (rat) thoracic aorta assessed as relaxation of phenylephrine-induced vasoconstriction after 30 min relative to control; format: tissue-based
[3] = molecular target: T1, Voltage-gated L-type calcium channel; experiment: Inhibition of L-type calcium channel in neonatal rat cortical neurons assessed as inhibition of veratridine-induced intracellular calcium level incubated for 30 min followed by veratridine induction for 2 min by fluorimetric analysis; format: cell-based

How did the IC50 [1] turn out when `CCOC(=O)C1=C(C)NC(C)=C(C(=O)OC)C1c1cccc(OCC(=O)N2CCCCC2)c1` (configuration not stated) was run?
The IC50 was 1.25 µM.

And the pIC50 [1]?
The pIC50 was 5.9.

How did the IC50 [1] turn out when `CCOC(=O)C1=C(C)NC(C)=C(C(=O)OC)C1c1ccc(OCC(=O)OC)c(OC)c1` (configuration not stated) was run?
The IC50 was 12.8 µM.

And the pIC50 [1]?
The pIC50 was 4.89.

For `CCOC(=O)C1=C(C)NC(C)=C(C(=O)OC)C1c1ccc(OCC(=O)N2CCCCC2)c(OC)c1` (configuration not stated), which IC50 [1] is on record?
Its IC50 is 3.89 µM.

What about the pIC50 [1] of the same molecule?
The pIC50 was 5.41.

With `COC(=O)C1=C(C)NC(C)=C(C(=O)OC)C1c1ccc(OCC(=O)N2CCCC2)c(OC)c1` as the molecule, how does the IC50 [2] read?
The IC50 was 0.83 µM.

What about the pIC50 [2] of the same molecule?
The pIC50 was 6.08.

And the IC50 [3]?
The IC50 was 5.6 µM.

For `COC(=O)C1=C(C)NC(C)=C(C(=O)OC)C1c1ccc(OCC(=O)N2CCCCC2)c(OC)c1`, which IC50 [3] is on record?
Its IC50 is 10 µM.

For `COC(=O)C1=C(C)NC(C)=C(C(=O)OC)C1c1ccc(OCC(=O)N2CCN(C)CC2)c(OC)c1`, which IC50 [2] is on record?
The IC50 was 6.91 µM.

What about the pIC50 [2] of the same molecule?
Its pIC50 is 5.16.

What about the IC50 [3] of the same molecule?
The IC50 was 9.1 µM.

Which IC50 [3] does the source give for `COC(=O)C1=C(C)NC(C)=C(C(=O)OC)C1c1ccc(OCC(=O)n2ccnc2)c(OC)c1` here?
The IC50 was 10.1 µM.

For `COC(=O)C1=C(C)NC(C)=C(C(=O)OC)C1c1ccc(OCC(=O)NC(C)(C)C)c(OC)c1`, which IC50 [3] is on record?
The IC50 was 2.5 µM.

Which IC50 [2] does the source give for `COC(=O)C1=C(C)NC(C)=C(C(=O)OC)C1c1ccc(OCC(=O)N2CCCC(C)C2)c(OC)c1` (configuration not stated) here?
Its IC50 is 1.73 µM.

What about the pIC50 [2] of the same molecule?
Its pIC50 is 5.76.

And the IC50 [3]?
Its IC50 is 10 µM.

With `COC(=O)COc1ccc(C2C(C(=O)OC)=C(C)NC(C)=C2C(=O)OC)cc1` as the molecule, how does the IC50 [3] read?
Its IC50 is 2.1 µM.

Which IC50 [2] does the source give for `COC(=O)COc1cccc(C2C(C(=O)OC)=C(C)NC(C)=C2C(=O)OC)c1` here?
The IC50 was 1.44 µM.

And the pIC50 [2]?
The pIC50 was 5.84.

And the IC50 [3]?
The IC50 was 10 µM.

For `COC(=O)C1=C(C)NC(C)=C(C(=O)OC)C1c1cccc(OCC(=O)N2CCOCC2)c1`, which IC50 [2] is on record?
Its IC50 is 0.64 µM.

And the pIC50 [2]?
Its pIC50 is 6.19.

And the IC50 [3]?
Its IC50 is 9.9 µM.

How did the IC50 [2] turn out when `COC(=O)C1=C(C)NC(C)=C(C(=O)OC)C1c1cccc(OCC(=O)N2CCCC2)c1` was run?
Its IC50 is 4.57 µM.

And the pIC50 [2]?
Its pIC50 is 5.34.

And the IC50 [3]?
Its IC50 is 3.6 µM.

`COC(=O)C1=C(C)NC(C)=C(C(=O)OC)C1c1cccc(OCC(=O)N2CCCCC2)c1` was tested. Which IC50 [3] did it give?
Its IC50 is 10 µM.

For `COC(=O)C1=C(C)NC(C)=C(C(=O)OC)C1c1cccc(OCC(=O)N2CCN(C)CC2)c1`, which IC50 [2] is on record?
The IC50 was 9.54 µM.

What about the pIC50 [2] of the same molecule?
Its pIC50 is 5.02.

What about the IC50 [3] of the same molecule?
Its IC50 is 10 µM.
